The values that follow come from patent US8008291B2 (Mimetica Pty Ltd, priority 2008, dated 2011).

Structures are written as SMILES. Where only a bound is given, the exact number is not on record here.

T1 sequence (P33032 whole entry): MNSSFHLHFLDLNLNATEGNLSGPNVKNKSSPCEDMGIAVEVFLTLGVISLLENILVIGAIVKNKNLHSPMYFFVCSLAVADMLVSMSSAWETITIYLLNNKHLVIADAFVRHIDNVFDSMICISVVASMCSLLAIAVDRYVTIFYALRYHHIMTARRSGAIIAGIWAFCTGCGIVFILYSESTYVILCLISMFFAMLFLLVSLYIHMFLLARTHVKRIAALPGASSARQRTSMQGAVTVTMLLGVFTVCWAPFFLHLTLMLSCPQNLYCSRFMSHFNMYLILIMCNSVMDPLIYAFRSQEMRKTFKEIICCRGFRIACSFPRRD

The experiment has as its target T1, human MC5R (hMC5R) (Homo sapiens, UniProt P33032).
T1 construct: purchased Perkin Elmer RBXMC5M400UA
Description: Human MC5R radioligand binding assay (membranes, [125I] NDP-MSH displacement). The note with it: hMC5R binding; tested as trifluoroacetate or hydrochloride salts, or free bases; read-out: MC5R radioligand IC50. A digest of the protocol: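 Frozen human MC5R membranes incubated with test compound and in-house iodogen-labeled, HPLC-purified [125I]NDP-MSH for 1 hr at 37° C. Binding measured as displacement of the radioligand.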
A word on the IC50: it is the concentration that gives 50% inhibition. With `N=C(N)NCCC[C@@H]1N[C@H](CNC(=O)c2cc3ccccc3o2)CCN(CC(c2ccccc2)c2ccccc2)C1=O` [Compound 132, N-(((3S,5S)-1-(2,2-diphenylethyl)-3-(3-guanidinopropyl)-2-oxo-1,4-diazepan-5-yl)methyl)benzofuran-2-carboxamide], the IC50 is less than 10000 nM. To `CCCCOC(=O)NCC[C@@H]1N[C@H](CNC(=O)c2ccc3cc(Cl)ccc3c2)CCN(C[C@@H](CC)c2ccccc2)C1=O` [Compound 524, butyl 2-((2S,7S)-7-((6-chloro-2-naphthamido)methyl)-3-oxo-4-((S)-2-phenylbutyl)-1,4-diazepan-2-yl)ethylcarbamate] belongs less than 1000 nM.

For the compound `NCCC[C@@H]1N[C@H](CNC(=O)c2ccc3ccccc3c2)CCN(Cc2ccc(Cl)cc2)C1=O` [Compound 323, N-(((3S,5S)-3-(3-aminopropyl)-1-(4-chlorobenzyl)-2-oxo-1,4-diazepan-5-yl)methyl)-2-naphthamide], the half-inhibitory concentration (IC50) is less than 10000 nM.

With `O=C(/C=C/c1ccc(F)cc1F)NC[C@@H]1CCN(CC(c2ccccc2)c2ccccc2)C(=O)[C@H](CCN2CCCCC2)N1` [Compound 400, (E)-3-(2,4-difluorophenyl)-N-(((3S,5S)-1-(2,2-diphenylethyl)-2-oxo-3-(2-(piperidin-1-yl)ethyl)-1,4-diazepan-5-yl)methyl)acrylamide], the IC50 is less than 100 nM. To `CC[C@H](CN1CC[C@@H](CNC(=O)c2ccc(Cl)c(Cl)c2)N[C@@H](CCNC(C)C(F)(F)F)C1=O)c1ccccc1` (stereo partly drawn) [Compound 491, 3,4-dichloro-N-(((3S,5S)-2-oxo-1-((S)-2-phenylbutyl)-3-(2-(1,1,1-trifluoropropan-2-ylamino)ethyl)-1,4-diazepan-5-yl)methyl)benzamide] belongs less than 1000 nM; to `CC(C)NCCCC[C@@H]1N[C@H](CNC(=O)c2ccc3ccccc3c2)CCN(CC(c2ccccc2)c2ccccc2)C1=O` [Compound 229, N-(((3S,5S)-1-(2,2-diphenylethyl)-3-(4-(isopropylamino)butyl)-2-oxo-1,4-diazepan-5-yl)methyl)-2-naphthamide], less than 100 nM. To `O=C(C=Cc1ccccc1)NC[C@@H]1CCN(CC(c2ccccc2)c2ccccc2)C(=O)[C@H](CCCN2CCCCC2)N1` [Compound 266, N-(((3S,5S)-1-(2,2-diphenylethyl)-2-oxo-3-(3-(piperidin-1-yl)propyl)-1,4-diazepan-5-yl)methyl)cinnamamide] belongs less than 100 nM. The same measure for `CC[C@H](CN1CC[C@@H](CNC(=O)c2ccc3cc(Cl)ccc3c2)N[C@@H](CCN2CCCC2)C1=O)c1ccccc1` [Compound 409, 6-chloro-N-(((3S,5S)-2-oxo-1-((S)-2-phenylbutyl)-3-(2-(pyrrolidin-1-yl)ethyl)-1,4-diazepan-5-yl)methyl)-2-naphthamide]: less than 10 nM.

As for `CC[C@H](CN1CC[C@@H](CNC(=O)c2ccc(Cl)c(Cl)c2)N[C@@H](CCN2C(=O)CCC2=O)C1=O)c1ccccc1` [Compound 489, 3,4-dichloro-N-(((3S,5S)-3-(2-(2,5-dioxopyrrolidin-1-yl)ethyl)-2-oxo-1-((S)-2-phenylbutyl)-1,4-diazepan-5-yl)methyl)benzamide], the half-inhibitory concentration (IC50) was less than 10000 nM. On to `CC[C@H](CN1CC[C@@H](CNC(=O)c2ccc(Cl)c(Cl)c2)N[C@@H](CCN(C(C)C)C(C)C)C1=O)c1ccccc1` [Compound 445, 3,4-dichloro-N-(((3S,5S)-3-(2-(diisopropylamino)ethyl)-2-oxo-1-((S)-2-phenylbutyl)-1,4-diazepan-5-yl)methyl)benzamide], for which the half-maximal inhibitory concentration (IC50) was less than 10 nM.

For the compound `CC[C@H](CN1CC[C@@H](CNC(=O)c2ccc(Cl)c(Cl)c2)N[C@@H](CCN2CCC(C)CC2)C1=O)c1ccccc1` [Compound 446, 3,4-dichloro-N-(((3S,5S)-3-(2-(4-methylpiperidin-1-yl)ethyl)-2-oxo-1-((S)-2-phenylbutyl)-1,4-diazepan-5-yl)methyl)benzamide], the half-inhibitory concentration (IC50) was less than 10 nM.
